According to patent US10709711B2 (G1 Therapeutics, Inc., priority 2013, dated 2020):

Experiments:
[1] = system: SupT1 cells (human T-cell lymphoblastic leukemia); assay: Inhibition of cellular proliferation, SupT1 cells (CellTiter-Glo); assay type: cell-based; conditions: SUP-T1, 96 h, cell viability after four days, nine point dilution series 10 uM to 1 nM
Description: (§1) The SupT1 cells were seeded in Costar (Tewksbury, Mass.) 3093 96 well tissue culture treated white walled/clear bottom plates. A nine point dose response dilution series from 10 uM to 1 nM was performed and cell viability was determined after four days as indicated using the CellTiter-Glo® assay (CTG; Promega, Madison, Wis., United States of America) following the manufacturer's recommendations. Plates were read on a BioTek (Winooski, Vt.) Syngergy2 multi-mode plate reader. The Relative Light Units (RLU) were plotted as a result of variable molar concentration and data was analyzed using Graphpad (LaJolla, Calif.) Prism 5 statistical software to determine the IC50 for each compound.
(§2) The compounds listed in Table 1 were tested for the inhibition of cellular proliferation using SupT1 (human T-cell lymphoblastic leukemia) and Daudi (human B-lymphoblastoid cell from Burkitt's Lymphoma patient).

[2] = system: Daudi (human B-lymphoblastoid cell from Burkitt's Lymphoma patient); assay: Inhibition of cellular proliferation, Daudi cells (CellTiter-Glo); assay type: cell-based; conditions: EC50 measured as illustrated in Example 150 (CellTiter-Glo)
Description: as §1, §2

Structure (SMILES)	EC50 [1] [nM]	EC50 [2] [nM]
CCC(C)CN1CCN(c2ccc(Nc3ncc4cc5n(c4n3)C3(CCCC3)CNC5=O)nc2)CC1 (stereo not drawn) [AAA]	15	3340
CC(C)N1CCN(c2ccc(Nc3ncc4cc5n(c4n3)C3(CCCCC3)CNC5=O)nc2)C[C@@H]1C [AA]	58	233
C[C@H](O)CN1CCN(c2ccc(Nc3ncc4cc5n(c4n3)C3(CCCCC3)CNC5=O)nc2)CC1 [A]	57	281
CN1CCN(C(=O)c2ccc(Nc3ncc4cc5n(c4n3)C3(CCCC3)CNC5=O)nc2)CC1 [BBB]	41	758
CC1(C)CN(c2ccc(Nc3ncc4cc5n(c4n3)C3(CCCCC3)CNC5=O)nc2)CCN1C1CC1 [BB]	70	472
C[C@H]1CN(c2ccc(Nc3ncc4cc5n(c4n3)C3(CCCCC3)CNC5=O)nc2)CCN1CC1CC1 [B]	96	385
CC(C)(C)CCN1CCN(c2ccc(Nc3ncc4cc5n(c4n3)C3(CCCC3)CNC5=O)nc2)CC1(C)C [CCC]	133	1860
CCN(CC)C1CCN(c2ccc(Nc3ncc4cc5n(c4n3)C3(CCCCC3)CNC5=O)nc2)CC1 [CC]	17	111
C[C@H](O)CN1CCN(c2ccc(Nc3ncc4cc5n(c4n3)C3(CCCCC3)CNC5=O)nc2)C[C@@H]1C [C]	74	373
C[C@@H]1CN(c2ccc(Nc3ncc4cc5n(c4n3)C3(CCCC3)CNC5=O)nc2)C[C@H](C)N1 [DDD]	161	839
C[C@@H]1CN(c2ccc(Nc3ncc4cc5n(c4n3)C3(CCCCC3)CNC5=O)nc2)C[C@H](C)N1C [DD]	105	546
CN1CCN(c2ccc(Nc3ncc4cc5n(c4n3)C3(CCCCC3)CNC5=O)nc2)CC1(C)C [D]	55	297
CC(C)(O)CN1CCN(c2ccc(Nc3ncc4cc5n(c4n3)C3(CCCC3)CNC5=O)nc2)CC1 [EEE]	65	475
CC(C)N1CCN(Cc2ccc(Nc3ncc4cc5n(c4n3)C3(CCCCC3)CNC5=O)nc2)CC1 [EE]	89	259
CC(C)C1CN(c2ccc(Nc3ncc4cc5n(c4n3)C3(CCCCC3)CNC5=O)nc2)CCN1 (stereo not drawn) [E]	9.3	140
CCN1[C@H](C)CN(c2ccc(Nc3ncc4cc5n(c4n3)C3(CCCCC3)CNC5=O)nc2)C[C@@H]1C [FF]	90	380
O=C1NCC2(CCCCC2)n2c1cc1cnc(Nc3ccc(N4CCN(C5CCC5)CC4)cn3)nc12 [F]	107	692
CC(C)N1CCN(c2ccc(Nc3ncc4cc5n(c4n3)C3(CCCC3)CNC5=O)nc2)CC1C (stereo not drawn) [GGG]	161	586
CC(C)N1CCN(c2ccc(Nc3ncc4cc5n(c4n3)C3(CCCCC3)CNC5=O)nc2)CC1 [GG]	57	
CC1CN(c2ccc(Nc3ncc4cc5n(c4n3)C3(CCCCC3)CNC5=O)nc2)CCN1CCC(C)(C)C (stereo not drawn) [G]	156	1530
O=C1NCC2(CCCC2)n2c1cc1cnc(Nc3ccc(N4CCC(N5CCCCC5)CC4)cn3)nc12 [HHH]	85	984
O=C1NCC2(CCCCC2)n2c1cc1cnc(Nc3ccc(N4CCN(CC5CC5)CC4)cn3)nc12 [HH]	79	681
CC1(C)CN(c2ccc(Nc3ncc4cc5n(c4n3)C3(CCCCC3)CNC5=O)nc2)CCN1CC1CC1 [H]	118	719
CC(C)N1CCN(c2ccc(Nc3ncc4cc5n(c4n3)C3(CCCC3)CNC5=O)nc2)CC1 [III]	230	775
CC(C)N1CCN(C(=O)c2ccc(Nc3ncc4cc5n(c4n3)C3(CCCCC3)CNC5=O)nc2)CC1 [II]	42	347

Structure (SMILES)	EC50 [1] [nM]	EC50 [2] [nM]
CC1(C)CN(c2ccc(Nc3ncc4cc5n(c4n3)C3(CCCCC3)CNC5=O)nc2)CCN1 [I]	39	249
CCC(C)CN1[C@H](C)CN(c2ccc(Nc3ncc4cc5n(c4n3)C3(CCCC3)CNC5=O)nc2)C[C@@H]1C (stereo partly drawn) [JJJ]	143	448
CCN(CC)C1CCN(C(=O)c2ccc(Nc3ncc4cc5n(c4n3)C3(CCCCC3)CNC5=O)nc2)C1 (stereo not drawn) [JJ]	49	389
C[C@@H]1CN(c2ccc(Nc3ncc4cc5n(c4n3)C3(CCCCC3)CNC5=O)nc2)CCN1C[C@@H](C)O [J]	47	362
C[C@H]1CN(c2ccc(Nc3ncc4cc5n(c4n3)C3(CCCCC3)CNC5=O)nc2)CCN1 [KK]	112	147
CC1CCN(C2CCN(c3ccc(Nc4ncc5cc6n(c5n4)C4(CCCCC4)CNC6=O)nc3)CC2)C1 (stereo not drawn) [K]	134	167
CCN(CC)C1CCN(c2ccc(Nc3ncc4cc5n(c4n3)C3(CCCC3)CNC5=O)nc2)CC1 [LLL]	241	1550
O=C1NCC2(CCCCC2)n2c1cc1cnc(Nc3ccc(C(=O)N4CCN(C5CCC5)CC4)cn3)nc12 [LL]	84	501
CC(C)N1CCN(c2ccc(Nc3ncc4cc5n(c4n3)C3(CCCCC3)CNC5=O)nc2)C[C@H]1C [L]	153	1260
CCOCCN1CCN(c2ccc(Nc3ncc4cc5n(c4n3)C3(CCCC3)CNC5=O)nc2)CC1 [MMM]	37	294
C[C@@H]1CN(c2ccc(Nc3ncc4cc5n(c4n3)C3(CCCCC3)CNC5=O)nc2)C[C@H](C)N1C[C@@H](C)O [MM]	84	681
C[C@@H]1CN(c2ccc(Nc3ncc4cc5n(c4n3)C3(CCCCC3)CNC5=O)nc2)C[C@H](C)N1CCC(C)(C)C [M]	184	1460
CC1CN(c2ccc(Nc3ncc4cc5n(c4n3)C3(CCCC3)CNC5=O)nc2)CCN1CC1CC1 (stereo not drawn) [NNN]	160	519
C[C@@H]1CN(c2ccc(Nc3ncc4cc5n(c4n3)C3(CCCCC3)CNC5=O)nc2)CCN1C [NN]	84	1040
O=C1NCC2(CCCCC2)n2c1cc1cnc(Nc3ccc(N4CCC(N5CCCCC5)CC4)cn3)nc12 [N]	34	122
O=C1NCC2(CCCC2)n2c1cc1cnc(Nc3ccc(C(=O)N4CCN(CC5CC5)CC4)cn3)nc12 [OOO]	104	668
CC1CN(c2ccc(Nc3ncc4cc5n(c4n3)C3(CCCCC3)CNC5=O)nc2)CC(C)N1CC1CC1 (stereo not drawn) [OO]	114	880
CN(C)C1CCN(c2ccc(Nc3ncc4cc5n(c4n3)C3(CCCCC3)CNC5=O)nc2)CC1 [O]	44	123
CC1CN(c2ccc(Nc3ncc4cc5n(c4n3)C3(CCCC3)CNC5=O)nc2)CC(C)N1CCC(C)(C)C (stereo not drawn) [PPP]	3040	
CC(C)N1CCN(c2ccc(Nc3ncc4cc5n(c4n3)C3(CCCCC3)CNC5=O)nc2)CC1C (stereo not drawn) [PP]	81	260
C[C@@H]1CN(c2ccc(Nc3ncc4cc5n(c4n3)C3(CCCCC3)CNC5=O)nc2)C[C@H](C)N1 [P]	33	140
O=C1NCC2(CCCC2)n2c1cc1cnc(Nc3ccc(N4CCNCC4)cn3)nc12 [QQQ]	258	485
CCN(CC)C1CCN(c2ccc(Nc3ncc4cc5n(c4n3)C3(CCCCC3)CNC5=O)nc2)C1 (stereo not drawn) [QQ]	68	851
O=C1NCC2(CCCCC2)n2c1cc1cnc(Nc3ccc(N4CCNCC4)cn3)nc12 [Q]	40	561
